Molecular target: T1, V1 receptor (Rattus norvegicus, UniProt P30560)
T1 construct: rat liver plasma membrane preparations; from tissue; host or cells: rat liver plasma membranes
Assay: V1 receptor binding assay
Details: [H]^3-Arg-vasopressin 2×10^-10 M, rat liver plasma membrane, 37° C., 10 minutes, pH 8.0

T1 sequence (P30560 whole entry): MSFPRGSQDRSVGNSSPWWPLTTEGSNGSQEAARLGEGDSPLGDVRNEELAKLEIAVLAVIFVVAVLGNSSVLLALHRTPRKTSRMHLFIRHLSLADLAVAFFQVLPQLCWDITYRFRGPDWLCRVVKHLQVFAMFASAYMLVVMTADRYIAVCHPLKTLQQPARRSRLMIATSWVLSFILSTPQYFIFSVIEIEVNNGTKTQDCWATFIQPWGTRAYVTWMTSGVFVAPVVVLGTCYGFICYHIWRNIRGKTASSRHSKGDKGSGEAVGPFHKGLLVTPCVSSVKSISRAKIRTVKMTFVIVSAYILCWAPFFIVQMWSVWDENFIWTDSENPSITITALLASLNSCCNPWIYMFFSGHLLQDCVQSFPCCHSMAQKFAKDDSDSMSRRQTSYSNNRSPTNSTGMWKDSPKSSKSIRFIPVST

Row | Compound | IC50 [nM]
1 | C#CCc1ccc(C(=O)N2CCC(N3C(=O)CCc4ccccc43)CC2)cc1 [Example 96, 1-[1-(4-Propargylbenzoyl)-4-piperidinyl]-3,4-dihydrocarbostyril] | 600
2 | CN(C)c1ccc(S(=O)(=O)CCCCCOc2ccc(C(=O)N3CCC(N4C(=O)CCc5ccccc54)CC3)cc2)cc1 [Example 290, 1-{1-(4-[5-(4-Dimethylaminophenylsulfonyl)pentyloxy]benzoyl)-4-piperidinyl}-3,4-dihydrocarbostyril] | 300

— US5652247A, “Carbostyril derivatives” (Otsuka Pharmaceutical Co., Ltd, priority 1989, dated 1997)
